# Patent US12631623B2, “Heart tissue model” (IMBA—INSTITUT FÜR MOLEKULARE BIOTECHNOLOGIE GMBH, priority 2020, dated 2026)
# Entries after “also recorded” stand apart in the source; their conditions may differ.
# Tests used:
# [1] = system: cardiac organoids (hPSC-derived); experiment: Reporter imaging / immunostaining of cardiomyocyte and endothelial cell organisation in cardiac organoids; format: cell-based, human; details: for organization of cardiomyocytes and endothelial cells: Wnt-inhibitor during differentiation, CHIR99021 5 μM or 6 μM; for location of endothelial cell layer: with VEGF; for EC lining of cavity: VEGF(-A) added after CM specification stage; for separation of CM and EC layers: VEGF(-A) included at cardiac mesoderm stage
# Description: (§1) Immunostaining—Following fixation with 4% PFA (Sigma-Aldrich, #16005) specimens were washed twice in 1×PBS and the 3D constructs additionally once in PBS/Tween20 (0.1%, Sigma-Aldrich, #P1379) for at least 15 min each. Tissues were incubated in blocking solution consisting of PBS (Gibco, #14190094) with 4% goat (Bio-Rad Laboratories, #C07SA) or donkey serum (Bio-Rad Laboratories, #C06SB) and 0.2% Triton X-100 (Sigma-Aldrich, #T8787) for at least 15 minutes. The primary antibody was subsequently applied in above blocking buffer for 1-3 hours at room temperature or overnight at 4° C. in the case of the 2D samples and 2 days at 4° C. on a shaker for 3D samples. Following washing twice with PBS/Tween20, 3D tissues were incubated with the secondary antibody solution at 4° C. on a shaker for 2 more days while 2D samples were incubated up to 2 hours at room temperature. Following these washing steps and an additional PBS wash, tissues were ready for analysis or storage at 4° C. in PBS, while slides were mounted using fluorescence mounting medium (Dako Agilent Pathology Solutions, #S3023). 3D tissues were cleared with FocusClear (CellExplorer Labs, #FC-101) prior to imaging.
# (§2) Image acquisition and analysis—Fixed whole mounts and sections were imaged with point scanning (upright Zeiss LSM800 Axio Imager with an Apochromat 20× objective lens at 1× magnification) and spinning disk confocal microscopes (Olympus spinning disk system based on a IX3 Series (IX83) inverted microscope, equipped with a Yokogawa W1 spinning disc), or a widefield microscope (Zeiss Axio Imager 2, Axio Vert A1, Panoramic FLASH 250 II System). Live imaging experiments were performed using a Zeiss Celldiscoverer 7 or above-mentioned spinning disk microscope. For high-throughput imaging and analysis, images were taken with a Celigo Imaging Cytometer microscope (Nexcelom Biosciences, LLC) and analyzed with custom-made scripts written for the FIJI software. Sections for transmission electron microscopy were examined with aFEI Morgagni 268D TEM (FEI, Eindhoven, The Netherlands) operated at 80 kV. Images were acquired using an 11 megapixel Morada CCD camera (Olympus-SIS).
# [2] = system: cardiac mesoderm cavity structures (cardioids); experiment: Dextran incorporation assay in cardioids; format: cell-based, human; details: low-molecular-weight (4 kDa) dextran, cardiac mesoderm stage
# Description: Dextran and Fluo-4 incorporation assays—A 4.4 kDa Dextran conjugated with TAMRA (Sigma Aldrich, T1037) was added to the cardioid culture between 64 h and 90 h. Cardioids were live imaged as cavities started to form. To image and analyze calcium-transients, 3D cardioids and 2D CM were loaded with Fluo-4 AM (Thermo Fisher Scientific, #F14217). After a 15-min incubation, cardioids were incubated for another 15 min in Tyrode's salt solution (Sigma Aldrich, #T2397). Subsequently, cardioids were imaged live and videos were analyzed with FIJI software (Schindelin et al., 2012, Nature Methods 9, 676-682) to acquire the signal intensity (F) of regions of interest and background (F0).
# [3] = system: cardioids (hPSC-derived); experiment: High-throughput imaging of cardioid diameter and cavity expansion at the cardiac mesoderm stage (day 3.5); format: cell-based, human; details: for cardiac mesoderm density / cell number per cardioid: BMP inhibition with Noggin or LDN193189, initial two days of cardiac mesoderm stage; for cavity expansion / cavity morphogenesis / organoid/cardioid diameter (size): Noggin 100 ng/ml or LDN193189 0.2 μM, initial two days of cardiac mesoderm stage
# Description: as §2
# We next used cardioids to dissect how signaling controls intrinsic morphogenesis and patterning during cardioid specification. To quantify phenotypes with high statistical power, we combined the high-throughput cardioid platform with a custom-made semi-automated imaging/analysis FIJI-pipeline. Using this setup, we examined which signals control cardioid self-organization and at what stage of mesodermal specification they act. We first systematically tested the effects of key mesoderm and cardiac mesoderm signaling dosages (e. g. WNT, BMP) on cardiac cavity self-morphogenesis. […] An intermediate WNT dosage promoted both cavity morphogenesis and CM specification. The optimal WNT activation range was consistent for each hPSC line but differed across lines, consistent with numerous studies showing line-specific signaling responses. Importantly, the highest WNT dosage promoted cavity formation without CM specification (FIG. 16A), highlighting a striking difference in signaling control of cell-fate specification versus morphogenesis.
# [4] = system: cardioids (hPSC-derived); experiment: RNA-seq gene expression of cardioids induced with high vs low CHIR99021; format: cell-based, human
# Description: RNA isolation and RNA-seq/Smart-Seq2/single-cell (sc)RNA-seq preparation—RNA was isolated with the RNeasy Mini Kit (Qiagen, #74104). Generation of the bulk RNA-seq libraries was performed according to the manufacturer's instructions with QuantSeq 3′ mRNA-Seq Library Prep Kit FWD (Lexogen GmbH, #015). After the preparation of the libraries, samples were checked for an adequate size distribution with a fragment analyzer (Advanced Analytical Technologies, Inc) and were submitted to the Vienna Biocenter Core Facilities (VBCF) Next-Generation-Sequencing (NGS) facility for sequencing. For Smart-Seq2 analysis, 400 cells were sorted into lysis buffer and stored at −80° C. until further processing. […]
# Bioinformatic analysis—Trimming was performed for Smart-Seq2 experiments using trim-galore v0.5.0 and for QuantSeq 3′ mRNA-Seq experiments using BBDuk v38.06 (ref=polyA.fa.gz,truseq.fa.gz k=13 ktrim=r useshortkmers=t mink=5 qtrim=r trimq=10 minlength=20). Reads mapping to abundant sequences included in the iGenomes UCSC hg38 reference (human rDNA, human mitochondrial chromosome, phiX174 genome, adapter) were removed using bowtie2 v2.3.4.1 alignment. Remaining reads were analyzed using genome and UCSC gene annotation provided in the iGenomes UCSC hg38 bundle (support.illumina.com/sequencing/sequencingsoftware/igenome.html). […]
# [5] = system: hPSCs (WTC MYH10-GFP); experiment: Mesoderm induction of hPSC aggregates (T / SOX2 staining); format: cell-based, human; details: 8 uM CHIR99021, 40 h of mesoderm induction, 1000 hPSCs
# Description: as §1
# [6] = system: cardiac organoids (hPSC-derived, WTC MYL7-GFP/CDH5-Tomato)
# Description: Generation of cardiac organoids with endothelial lining—Pluripotency maintenance medium was refreshed 6 h prior to seeding cells. Then, 2500-3000 hPSC were seeded into ultra-low cluster 96-well plates (Corning) in FLyAB(Ins) medium with CHIR (5-6 μM) and ROCKi (5 μM) for 36 h-40 h.
# In order to stop endothelial cell differentiation, 100 nM sunitinib malate (Biovision, #1611) was added from the cardiac mesoderm stage (BFIIWPRa) onward.
# Flow cytometry—Cells were dissociated using the CM dissociation kit (Stem Cell Technologies, #05025). After centrifugation for 3 min at 130 g, cells were resuspended in 300 μl PBS supplemented with 0.5 mM EDTA (Biological Industries, #01-862-1B) and 10% FBS (PAA Laboratories, #A15-108). Cells were acquired with a FACS LSR Fortessa II (BD) and analysed with FlowJo V10 (FlowJo, LLC) software. FACS sorting was performed using a Sony SH800 Cell Sorter (Sony Biotechnology).
# [7] = +Sunitinib (100 μM [sic]), end of differentiation day 7.5
molecule,measurement,setting,value
Cc1ccc2nc(NC(=O)CSc3nc4c(c(=O)n3-c3ccccc3)SCC4)sc2c1 [IWP2],organization of cardiomyocytes and endothelial cells,[1],two-layered organization
O=C(Nc1cccc2cccnc12)c1ccc(N2C(=O)[C@@H]3[C@H](C2=O)[C@@H]2C=C[C@H]3C2)cc1 [IWR-1],organization of cardiomyocytes and endothelial cells,[1],two-layered organization
dextran,permeability of cavity structures,[2],impermeable
same,permeability of cavity structures,[2]; listed as dextrans,not permeable
c1ccc2c(-c3cnn4cc(-c5ccc(N6CCNCC6)cc5)cnc34)ccnc2c1 [LDN193189],cardiac mesoderm density,[3],denser cardiac mesoderm
same,cell number per cardioid,[3],remained stable
same,cavity expansion / cavity morphogenesis,[3],interfere with cavity expansion; also recorded: impaired cavity morphogenesis
same,organoid/cardioid diameter (size),[3]; day 3.5,significantly decreased diameter; also recorded: reduces cardioid diameter; also recorded: decreased cardioid size
Oc1nc(-c2ccc(C(F)(F)F)cc2)nc2c1CSCC2 [XAV939],organization of cardiomyocytes and endothelial cells,[1],two-layered organization
Cc1c[nH]c(-c2cnc(NCCNc3ccc(C#N)cn3)nc2-c2ccc(Cl)cc2Cl)n1 [CHIR99021],"EC genes (PECAM1, CDH5, VEGFA, TAL1, LMO2, ETV2) expression",[4]; 4 μM CHIR99021 during mesoderm induction vs 8 μM,upregulated; also recorded: higher expression of EC-specifying genes
same,"BMP target genes (HAND1, IRX3, BMP4, BMP2, BMPR2) expression",[4]; 8 μM during mesoderm induction (cavity-forming conditions),upregulated
same,cavity defect of HAND1 KO organoids,"[3]; increased CHIR99021 during mesoderm induction, HAND1 KO (H9), d3.5",rescues cavity defect in HAND1 KO organoids
same,cardioid diameter / lumen expansion as function of CHIR99021 dosage,"[3]; range of CHIR99021 concentrations during mesoderm induction, day 3.5",dramatic effects on cardioid diameter; also recorded: striking effects on lumen expansion
same,endothelial lining of cavities,"[1]; 4 uM CHIR99021 during induction, d27, WTC MYL7-GFP",lining of internal cavities by endothelial (CD31+) cells
same,apoptosis (cleaved caspase 3 staining),[1]; 4 μM CHIR condition,increased levels inside the EC ring
same,apoptosis (cleaved caspase 3 staining),[1]; 6 μM CHIR condition,low levels of apoptosis
same,location of endothelial cell layer,"[1]; high WNT activity, 5-8 μM CHIR during mesoderm induction",compartment/lining around the cardiomyocytes
same,location of endothelial cell layer,"[1]; lower WNT activity, 4 μM (1-4 μM) CHIR during mesoderm induction",inner ring of EC expressing CD31
same,location of endothelial cell layer,"[1]; lower WNT activity, 4 μM (1-4 μM) CHIR during mesoderm induction, listed as CHIR",inside lining facing the cavity
same,"exit from pluripotency (T up, SOX2 down)",[5],efficiently exited pluripotency
VEGF,cardiomyocytes (MYL7+) in organoids,"[6]; VEGF 200 ng/ml at cardiac mesoderm stage, intermediate WNT activation",~41%
same,endothelial cells (CDH5+) in organoids,"[6]; VEGF 200 ng/ml at cardiac mesoderm stage, intermediate WNT activation, listed as VEGF-A",53%
same,cell composition of cardioid-like structures,"[1]; VEGF during cardiac mesoderm stage, no WNT inhibition","containing only ECs and fibroblast-like cells without CMs; also recorded: contained primarily ECs and COL1A1^+ cells, without CMs"
same,EC lining of cavity,[1],occasionally led to partial EC lining of cavities but often also to ECs forming a partial outside layer
same,EC lining of cavity,[1]; listed as VEGF-A,occasionally observed formation of an EC layer lining the cardioid cavity
same,separation of CM and EC layers,[1],separate into a CM and an EC layer with a space between them
same,separation of CM and EC layers,[1]; listed as VEGF-A,separated into CM and EC layers
CCN(CC)CCNC(=O)c1c(C)[nH]c(/C=C2\C(=O)Nc3ccc(F)cc32)c1C [Sunitinib],MYL7-GFP expressing cardiomyocytes,[6]; [7],96%
same,cells expressing the endothelial marker CDH5-Tomato,[6]; [7],3%
same,cardiomyocytes in organoids,[6]; Sunitinib 100 nM in the first 10 days of differentiation or longer,over 95%
"BMP4: bone morphogenetic protein 4 (protein, UniProt P12644 293-408, looked up) Bone morphogenetic protein 4: SPKHHSQRARKKNKNCRRHSLYVDFSDVGWNDWIVAPPGYQAFYCHGDCPFPLADHLNSTNHAIVQTLVNSVNSSIPKACCVPTELSAISMLYLDEYDKVVLKNYQEMVVEGCGCR",cavity expansion,"[3]; BMP signalling dosage at cardiac mesoderm stage, higher levels of BMP4",drove cavity expansion
"Noggin (protein, UniProt Q13253 28-232, looked up) Noggin: QHYLHIRPAPSDNLPLVDLIEHPDPIFDPKEKDLNETLLRSLLGGHYDPGFMATSPPEDRPGGGGGAAGGAEDLAELDQLLRQRPSGAMPSEIKGLEFSEGLAQGKKQRLSKKLRRKLQMWLWSQTFCPVLYAWNDLGSRFWPRYVKVGSCFSKRSCSVPEGMVCKPSKSVHLTVLRWRCQRRGGQRCGWIPIQYPIISECKCSC",cardiac mesoderm density,[3],denser cardiac mesoderm
same,cell number per cardioid,[3],remained stable
same,cavity expansion / cavity morphogenesis,[3],interfere with cavity expansion; also recorded: heavily impaired cavity expansion; also recorded: impaired cavity morphogenesis
same,organoid/cardioid diameter (size),[3]; day 3.5,significantly decreased diameter; also recorded: reduces cardioid diameter; also recorded: decreased cardioid size
